From BindingDB's records for patent US12391687 (Shanghai Ennovabio Pharmaceuticals, 2025) come the findings set out here.

pIC50: −log10 of the molar value.

Assay [1] addresses BDNF/NT-3 growth factors receptor (Homo sapiens, UniProt Q16620). Briefly: In Vitro Activity Test on TRKA, TRKB, TRKC Kinase. As for the experimental part:
(§1) Table 1: Experimental MethodThe tested compounds were subjected to 3-fold serial dilution to reach a final concentration of 1 μM to 0.05 nM (10 concentrations), duplicates for each concentration; and the DMSO concentration in the detection reaction was 1%.TRKA Enzyme Reaction:0.2 ng/μL TRKA protein kinase, 1 μM TK Substrate-biotin polypeptide substrate, 14.68 μM ATP, 1×enzymatic buffer, 5 mM MgCl2, and 1 mM DTT. The assay plate was White Proxiplate384-Plus plate (PerkinElmer), and the reaction was incubated at room temperature for 40 min, and the assay volume was 10 μL.TRKB Enzyme Reaction:0.037 ng/μL TRKB protein kinase, 1 μM TK Substrate-biotin polypeptide substrate, 4.77 μM ATP, 1× enzymatic buffer, 5 mM MgCl2, 1 mM MnCl2 and 1 mM DTT. The assay plate was White Proxiplate 384-Plus plate (PerkinElmer), the reaction was incubated at room temperature for 50 min, and the assay volume was 10 μL.TRKC Enzyme Reaction:0.037 ng/μL TRKC protein kinase, 1 μM TK Substrate-biotin polypeptide substrate, 25.64 μM ATP, 1× enzymatic buffer, 5 mM MgCl2, and 1 mM DTT. The detection plate was White Proxiplate 384-Plus plate (PerkinElmer), the reaction was incubated at room temperature for 40 min, and the assay volume was 10 μL.Detection Steps:10 μL of detection reagent (containing 0.125 μM SA-XL665 and 5 μL 1×TK-Antibody) was added to the plate and incubated overnight at room temperature. Synergy Neo 2 was used to read the plate.

The target in assay [2] is High affinity nerve growth factor receptor (Homo sapiens, UniProt P04629). Briefly: In Vitro Activity Test on TRKA, TRKB, TRKC Kinase. The protocol:
as §1

The target of assay [3] is NT-3 growth factor receptor (Homo sapiens, UniProt Q16288). As to the kind of experiment: In Vitro Activity Test on TRKA, TRKB, TRKC Kinase. As for the experimental part:
as §1

For assay [4], the target named is High affinity nerve growth factor receptor [G595R] (Homo sapiens, UniProt P04629, G595R). As to the kind of experiment: In Vitro Activity Test on Mutant TRKA (G595R). As for the experimental part:
Table 3: Experimental MaterialsThe recombinant human TRKA (G595R), TRKA (G667C) and TRKC (G623R) proteins were purchased from SignalChem. HTRF kinEASE TK kit was purchased from Cisbio Bioassays. Synergy Neo 2 of Biotek was used to read the plate. TRKA (G595R) Enzyme Reaction:0.12 ng/μL TRKA (G595R) kinase, 1 μM TK Substrate-biotin polypeptide substrate, 4.5 μM ATP, 1× enzymatic buffer, 5 mM MgCl2, and 1 mM DTT. The assay plate was White Proxiplate384-Plus plate (PerkinElmer), and the reaction was incubated at room temperature for 30 min, and the assay volume was 10 μL. Detection Steps:10 μL of detection reagent (containing 0.125 μM SA-XL665 and 5 μL 1×TK-Antibody) was added to the plate and incubated overnight at room temperature, and Synergy Neo 2 was used to read the plate.

Sequence of NT-3 growth factor receptor (Q16288 whole entry): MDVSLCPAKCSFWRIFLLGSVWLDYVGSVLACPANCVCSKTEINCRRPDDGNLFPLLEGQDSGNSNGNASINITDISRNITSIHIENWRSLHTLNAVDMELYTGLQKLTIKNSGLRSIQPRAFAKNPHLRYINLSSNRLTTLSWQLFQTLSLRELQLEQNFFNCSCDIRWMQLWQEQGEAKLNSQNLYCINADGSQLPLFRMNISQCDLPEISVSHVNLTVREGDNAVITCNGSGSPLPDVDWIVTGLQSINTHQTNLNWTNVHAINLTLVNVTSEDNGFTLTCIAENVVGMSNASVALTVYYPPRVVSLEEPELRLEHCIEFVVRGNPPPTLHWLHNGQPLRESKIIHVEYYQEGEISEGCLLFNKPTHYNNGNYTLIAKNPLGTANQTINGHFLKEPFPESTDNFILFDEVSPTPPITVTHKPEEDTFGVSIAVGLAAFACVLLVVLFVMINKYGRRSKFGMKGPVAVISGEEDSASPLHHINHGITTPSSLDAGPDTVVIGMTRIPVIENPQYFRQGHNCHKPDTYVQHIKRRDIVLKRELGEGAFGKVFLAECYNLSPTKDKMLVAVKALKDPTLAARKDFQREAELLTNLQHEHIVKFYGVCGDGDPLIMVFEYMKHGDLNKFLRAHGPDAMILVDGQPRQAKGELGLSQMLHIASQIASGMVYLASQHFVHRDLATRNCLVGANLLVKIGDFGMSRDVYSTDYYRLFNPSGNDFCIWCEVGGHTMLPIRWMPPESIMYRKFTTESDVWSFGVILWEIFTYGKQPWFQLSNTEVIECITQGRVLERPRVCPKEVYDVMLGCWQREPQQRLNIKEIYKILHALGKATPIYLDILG
Sequence of High affinity nerve growth factor receptor (P04629 whole entry): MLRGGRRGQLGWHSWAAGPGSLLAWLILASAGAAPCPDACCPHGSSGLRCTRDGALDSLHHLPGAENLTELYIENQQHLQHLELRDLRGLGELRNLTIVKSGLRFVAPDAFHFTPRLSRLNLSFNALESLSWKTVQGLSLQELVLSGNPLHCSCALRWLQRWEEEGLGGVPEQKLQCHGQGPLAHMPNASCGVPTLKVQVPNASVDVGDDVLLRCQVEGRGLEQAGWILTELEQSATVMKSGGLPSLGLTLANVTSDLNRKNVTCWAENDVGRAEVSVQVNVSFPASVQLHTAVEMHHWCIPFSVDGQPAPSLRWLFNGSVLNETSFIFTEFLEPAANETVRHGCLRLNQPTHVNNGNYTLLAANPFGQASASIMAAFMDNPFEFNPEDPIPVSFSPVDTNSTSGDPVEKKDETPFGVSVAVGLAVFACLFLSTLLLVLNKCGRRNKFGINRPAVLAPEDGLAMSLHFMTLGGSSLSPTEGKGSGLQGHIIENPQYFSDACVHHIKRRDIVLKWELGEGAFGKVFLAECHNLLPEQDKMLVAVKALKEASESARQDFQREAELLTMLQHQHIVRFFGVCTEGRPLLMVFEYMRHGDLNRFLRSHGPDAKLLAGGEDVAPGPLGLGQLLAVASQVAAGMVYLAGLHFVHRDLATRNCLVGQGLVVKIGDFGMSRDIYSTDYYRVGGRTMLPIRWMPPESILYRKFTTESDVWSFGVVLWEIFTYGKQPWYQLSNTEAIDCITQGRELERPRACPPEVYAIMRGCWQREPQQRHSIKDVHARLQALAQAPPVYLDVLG
Sequence of BDNF/NT-3 growth factors receptor (Q16620 whole entry): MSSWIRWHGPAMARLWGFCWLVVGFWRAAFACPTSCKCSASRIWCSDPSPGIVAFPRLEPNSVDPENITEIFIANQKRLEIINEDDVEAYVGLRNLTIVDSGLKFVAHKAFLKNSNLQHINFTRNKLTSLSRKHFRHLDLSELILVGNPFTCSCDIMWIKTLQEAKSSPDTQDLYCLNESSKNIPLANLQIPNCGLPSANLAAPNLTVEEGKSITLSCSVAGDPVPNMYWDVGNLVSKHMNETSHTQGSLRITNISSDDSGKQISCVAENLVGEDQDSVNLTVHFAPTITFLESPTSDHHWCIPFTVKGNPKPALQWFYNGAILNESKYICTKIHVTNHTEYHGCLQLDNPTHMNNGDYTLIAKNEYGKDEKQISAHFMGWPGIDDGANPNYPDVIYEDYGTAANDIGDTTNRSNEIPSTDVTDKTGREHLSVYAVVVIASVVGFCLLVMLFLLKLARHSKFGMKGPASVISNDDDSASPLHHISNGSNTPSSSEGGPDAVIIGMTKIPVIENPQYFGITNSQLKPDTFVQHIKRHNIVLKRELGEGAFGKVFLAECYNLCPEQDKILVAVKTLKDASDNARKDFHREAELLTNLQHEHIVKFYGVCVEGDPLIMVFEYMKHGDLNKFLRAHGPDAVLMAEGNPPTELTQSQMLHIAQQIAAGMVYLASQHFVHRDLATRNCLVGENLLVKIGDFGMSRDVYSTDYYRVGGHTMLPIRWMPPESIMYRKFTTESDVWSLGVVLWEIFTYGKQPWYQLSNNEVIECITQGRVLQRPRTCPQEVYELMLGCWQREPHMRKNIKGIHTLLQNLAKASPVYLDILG
Sequence of High affinity nerve growth factor receptor [G595R] (P04629 33-796 G595R limits assumed): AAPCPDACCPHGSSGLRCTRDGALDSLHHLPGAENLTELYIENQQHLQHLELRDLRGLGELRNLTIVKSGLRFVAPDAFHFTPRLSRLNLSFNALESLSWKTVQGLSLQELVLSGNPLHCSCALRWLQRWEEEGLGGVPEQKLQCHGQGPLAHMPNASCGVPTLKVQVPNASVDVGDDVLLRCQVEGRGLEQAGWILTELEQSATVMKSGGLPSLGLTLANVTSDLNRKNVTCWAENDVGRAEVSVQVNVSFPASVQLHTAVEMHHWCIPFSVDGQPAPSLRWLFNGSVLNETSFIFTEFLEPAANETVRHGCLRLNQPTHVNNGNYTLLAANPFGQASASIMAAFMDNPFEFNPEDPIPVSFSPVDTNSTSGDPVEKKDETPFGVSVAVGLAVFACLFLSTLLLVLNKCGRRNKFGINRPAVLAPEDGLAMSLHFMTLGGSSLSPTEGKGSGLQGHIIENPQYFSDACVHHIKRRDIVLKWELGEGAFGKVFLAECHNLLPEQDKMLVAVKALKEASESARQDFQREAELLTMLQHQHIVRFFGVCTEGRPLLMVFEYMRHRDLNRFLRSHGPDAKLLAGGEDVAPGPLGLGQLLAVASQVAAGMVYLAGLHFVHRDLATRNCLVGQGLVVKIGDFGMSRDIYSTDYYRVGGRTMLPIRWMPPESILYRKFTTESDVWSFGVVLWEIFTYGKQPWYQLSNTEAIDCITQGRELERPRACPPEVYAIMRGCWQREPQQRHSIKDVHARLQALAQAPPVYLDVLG

Turning to `CNC(=O)c1cnc2[nH]nc(N3CCC[C@@H]3c3cc(F)ccc3F)c2c1` [US12391687, Example 7], the negative logarithm of the IC50 (pIC50) in assay [1], in assay [2] and in assay [3] was more than 8.00 throughout.

Turning to `O=C(Nc1cnc2[nH]nc(N3C[C@@H](F)C[C@@H]3c3cc(F)ccc3F)c2c1)c1ccc(N2CC[C@H](O)C2)nc1` [US12391687, Example 11], the pIC50 (usually the IC50 on a negative log10 scale, so that one unit is a factor of ten) is more than 9.00 in assay [1], more than 8.00 in assay [3] and more than 8.00 in assay [4].

Turning to `NC(=O)CCNC(=O)c1cnc2[nH]nc(N3CCC[C@@H]3c3cc(F)ccc3F)c2c1` [US12391687, Example 15], the negative logarithm of the IC50 (pIC50) in assay [1], in assay [2] and in assay [3] was more than 8.00 in each case.

As for `Fc1ccc(F)c([C@H]2C[C@H](F)CN2c2n[nH]c3ncc(-c4cnn(C5CNC5)c4)cc23)c1` [US12391687, Example 26], the pIC50 in assay [1], in assay [2] and in assay [3] was more than 9.00 in each case.

In the case of `CC(C)OCc1nnc(-c2cnc3[nH]nc(N4C[C@@H](F)C[C@@H]4c4cc(F)ccc4F)c3c2)o1` [US12391687, Example 42], the pIC50 in assay [1], in assay [2] and in assay [3] was more than 9.00 each time.
